Measurements reported in the supplement of paper PMC5579334.
± gives the standard deviation of the averaged measurements.

Tests used:
HS-PSS [1] = assay: drug sensitivity score (DSS, CellTiter-Glo viability, 72 h) (DSS (dimensionless)); higher = more sensitive; extreme values may be limits of the assay
Summary of the method: (§1)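 Viability was scored by CellTiter-Glo ATP luminescence, scaled from vehicle to positive-control wells, with duplicates averaged where present. The cells, MPNST lines and primary human Schwann cells at 750–1000 per well, sat 72 h at 37 °C, 5% CO2, in 384-well plates preprinted with each compound at five concentrations in 10-fold steps. Four-parameter logistic fits were run on the data. These fits give drug sensitivity score and relative IC50 censored at the top concentration, and percent inhibition is reported at the top concentration.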

HS-Sch-2 [2] = assay: as above
Summary of the method: as §1

[3] = system: HSC1 (primary human Schwann cells); assay: as above
Summary of the method: as §1

[4] = system: HSC2 (primary human Schwann cells); assay: as above
Summary of the method: as §1

S1507-2 [5] = assay: as above
Summary of the method: as §1

S462 [6] = assay: as above
Summary of the method: as §1

ST8814 [7] = assay: as above
Summary of the method: as §1

STS26T [8] = assay: as above
Summary of the method: as §1

YST-1 [9] = assay: as above
Summary of the method: as §1

HS-PSS [10] = assay: drug sensitivity score (DSS, CellTox-Green cytotoxicity, 72 h) (DSS (dimensionless)); higher = more cytotoxic; extreme values may be limits of the assay
Summary of the method: (§2)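 MPNST cell lines and primary human Schwann cells were incubated 72 h at 37 °C in 384-well plates holding five 10-fold compound dilutions. CellTox-Green was added before seeding at a final 1:1000 dilution and reported fluorescence from DNA released by disrupted cells. Signals were scaled to vehicle and positive-control wells, and cultures failing plate quality control were dropped. Drug sensitivity score and relative IC50 come from four-parameter logistic fits, with IC50 censored at the top concentration.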

[11] = system: HSC1 (primary human Schwann cells); assay: as above
Summary of the method: as §2

[12] = system: HSC2 (primary human Schwann cells); assay: as above
Summary of the method: as §2

S1507-2 [13] = assay: as above
Summary of the method: as §2

ST8814 [14] = assay: as above
Summary of the method: as §2

STS26T [15] = assay: as above
Summary of the method: as §2

HS-PSS [16] = assay: % inhibition of CellTiter-Glo viability at highest tested concentration (72 h), relative to DMSO and benzethonium chloride controls; higher = more inhibition
Summary of the method: as §1

HS-Sch-2 [17] = assay: as above
Summary of the method: as §1

[18] = system: HSC1 (primary human Schwann cells); assay: as above
Summary of the method: as §1

[19] = system: HSC2 (primary human Schwann cells); assay: as above
Summary of the method: as §1

S1507-2 [20] = assay: as above
Summary of the method: as §1

S462 [21] = assay: as above
Summary of the method: as §1

ST8814 [22] = assay: as above
Summary of the method: as §1

STS26T [23] = assay: as above
Summary of the method: as §1

YST-1 [24] = assay: as above
Summary of the method: as §1

| Structure (SMILES) | drug sensitivity score (HS-PSS [1]) | drug sensitivity score (HS-Sch-2 [2]) | drug sensitivity score [3] | drug sensitivity score [4] | drug sensitivity score (S1507-2 [5]) | drug sensitivity score (S462 [6]) | drug sensitivity score (ST8814 [7]) | drug sensitivity score (STS26T [8]) | drug sensitivity score (YST-1 [9]) | drug sensitivity score (HS-PSS [10]) | drug sensitivity score [11] | drug sensitivity score [12] | drug sensitivity score (S1507-2 [13]) | drug sensitivity score (ST8814 [14]) | drug sensitivity score (STS26T [15]) | % inhibition (HS-PSS [16]) [%] | % inhibition (HS-Sch-2 [17]) [%] | % inhibition [18] [%] | % inhibition [19] [%] | % inhibition (S1507-2 [20]) [%] | % inhibition (S462 [21]) [%] | % inhibition (ST8814 [22]) [%] | % inhibition (STS26T [23]) [%] | % inhibition (YST-1 [24]) [%] |
| --- | --- | --- | --- | --- | --- | --- | --- | --- | --- | --- | --- | --- | --- | --- | --- | --- | --- | --- | --- | --- | --- | --- | --- | --- |
| Nc1nc(Cl)nc2c1ncn2[C@@H]1O[C@H](CO)[C@@H](O)[C@@H]1F [Clofarabine] (max concentration tested 10000 nM) | 13 | 18.2 | 14.4 | 17.5 | 11 ± 1.9 | 17.2 ± 2.3 | 12.8 | 15.8 | 14.8 | 6.52 | 15.7 | 15.8 | 3.61 ± 1.3 | 8.58 | 6.47 | 76 | 82.1 | 79.4 | 85.7 | 88.7 ± 1.4 | 103 ± 1.1 | 98.8 | 87.7 | 83.9 |
| Cn1c(CCCC(=O)O)nc2cc(N(CCCl)CCCl)ccc21 [Bendamustine] (max concentration tested 10000 nM) | 0 | 0 | 0 | 0 | 0 | 0 | 0 | 0 | 0.01 | 0 | 0 | 0 | 0 | 0 | 0 | 4.27 | 9.41 | 5.73 | 8.93 | -3.59 ± 5.5 | -6.58 ± 4 | -3.13 | 0.816 | 10.4 |
| O=C1CN2Cc3c(ccc(Cl)c3Cl)N=C2N1 [Anagrelide] (max concentration tested 10000 nM) | 0 | 8.23 | 1.41 | 11.1 | 0 | 0 | 0.934 | 0 | 0 | 0 | 0 | 0.367 | 0 | 0 | 0 | 4.14 | 38.7 | 17.3 | 51.1 | -1.32 ± 1.6 | -5.96 ± 0.63 | 17.3 | 1.1 | 2.83 |
| NS(=O)(=O)OC[C@@H]1C[C@@H](n2ccc3c(N[C@H]4CCc5ccccc54)ncnc32)C[C@@H]1O [Pevonedistat] (max concentration tested 10000 nM) | 23.8 | 28 | 12 | 14.3 | 17.3 ± 1 | 23.2 ± 1.4 | 20 | 12.7 | 15.2 | 10.7 | 4.84 | 3 | 16.7 ± 2.1 | 19.3 | 11.7 | 97 | 101 | 77.1 | 84.4 | 87.5 ± 1.1 | 96.07 ± 0.96 | 95.6 | 83.4 | 67.7 |
| COc1ccccc1S(=O)(=O)Nc1ccc2c(c1)CN(C)C(=O)N2 [PFI-1] (max concentration tested 10000 nM) | 2.11 | 5.21 | 3.78 | 4.03 | 6.21 ± 0.6 | 4.68 ± 0.9 | 5.94 | 3.53 | 4.93 | 0 | 0 | 0 | 2.07 ± 1.1 | 1.77 | 0 | 48.1 | 58.4 | 62.2 | 53.7 | 69.2 ± 3.9 | 53.6 ± 4.7 | 63.6 | 39.5 | 56.6 |
| CO[C@H]1C[C@@H]2CC[C@@H](C)[C@@](O)(O2)C(=O)C(=O)N2CCCC[C@H]2C(=O)O[C@H]([C@H](C)C[C@@H]2CC[C@@H](OCCO)[C@H](OC)C2)CC(=O)[C@H](C)/C=C(\C)[C@@H](O)[C@@H](OC)C(=O)[C@H](C)C[C@H](C)/C=C/C=C/C=C/1C [Everolimus] (max concentration tested 100 nM) | 3.56 | 3.17 | 17.2 | 15.8 | 6.7 ± 1.1 | 8.44 ± 0.54 | 7.31 | 15.6 | 4.45 | 0 | 0 | 0 | 6.46 ± 9.1 | 0 | 0 | 23.8 | 18.4 | 44.5 | 48.5 | 31 ± 1.7 | 29.4 ± 7.3 | 28.3 | 45.4 | 38.7 |
| CC[C@@H]1C(=O)OC[C@@H]1Cc1cncn1C [Pilocarpine] (max concentration tested 40000 nM) | 0 | 0.48 | 0 | 0 | 0.028 ± 0.04 | 0 | 0 | 0 | 0 | 0 | 0 | 0 | 0 | 0 | 0 | 3.53 | 14.2 | -5.47 | -5.33 | -0.921 ± 8.8 | -8.07 ± 3.1 | -5.43 | -5.95 | -0.64 |
| C[C@@H]1CCN(C(=O)CC#N)C[C@@H]1N(C)c1ncnc2[nH]ccc12 [Tofacitinib] (max concentration tested 5000 nM) | 0 | 0.89 | 3.18 | 1.53 | 0.398 ± 0.56 | 1.27 ± 0.56 | 0 | 0.0007 | 0.89 | 0 | 0 | 0 | 0.083 ± 0.12 | 0 | 0 | -4.37 | -3.98 | 11.7 | 25.1 | 0.251 ± 0.54 | 17.1 ± 3.5 | 6.57 | 10.4 | -2.9 |
| O=C(O)CCCCC(CCSCc1ccccc1)SCc1ccccc1 (stereo not given) [CPI-613] (max concentration tested 10000 nM) | 0.36 | 0 | 0 | 0 | 0 | 0 | 0 | 0 | 0.06 | 0 | 0 | 0 | 0.502 ± 0.71 | 0 | 0 | 17 | -6.28 | -3.11 | -1.05 | -8.09 ± 10 | -9.93 ± 9.6 | 0.691 | -2.54 | 14.3 |
| Cc1cnc(Nc2ccc(F)cc2Cl)nc1-c1c[nH]c(C(=O)N[C@H](CO)c2cccc(Cl)c2)c1 [VX-11E] (max concentration tested 2500 nM) | 2.39 | 6.97 | 3.7 | 4.46 | 1.62 ± 0.29 | 0.861 ± 0.47 | 3.25 | 1.5 | 0 | 0 | 2 | 4.5 | 2.31 ± 3.2 | 5.09 | 2.55 | 44.5 | 71.8 | 64.2 | 71.8 | 40.7 ± 3 | 29.1 ± 8.6 | 67.8 | 34 | 6.16 |
| CCc1c2c(nc3ccc(OC(=O)N4CCC(N5CCCCC5)CC4)cc13)-c1cc3c(c(=O)n1C2)COC(=O)[C@]3(O)CC [Irinotecan] (max concentration tested 10000 nM) | 3.76 | 8.31 | 9.72 | 8.79 | 6.91 ± 0.48 | 9.83 ± 0.34 | 9.68 | 6.61 | 12 | 3.15 | 6.2 | 5.29 | 2.16 ± 1.5 | 8.16 | 3.22 | 58.3 | 81.5 | 63.6 | 72.5 | 75.8 ± 0.88 | 98.1 ± 0.28 | 93.9 | 76.6 | 71.2 |
| CC(C)n1cnc2c(NCCc3ccc(O)cc3)nc(-c3csc4ccccc34)nc21 [StemRegenin 1] (max concentration tested 10000 nM) | 2.39 | 4.66 | 1.71 | 2.51 | 0.495 ± 0.7 | 0.493 ± 0.7 | 1.77 | 1.69 | 0 | 0 | 0 | 0 | 0 | 0 | 0.0972 | 46.5 | 92.9 | 42 | 37 | 19 ± 17 | 15.8 ± 7.6 | 31.3 | 41.7 | -1.94 |
| Cc1c(CN2CCN(C(=O)[C@H](C)O)CC2)sc2c(N3CCOCC3)nc(-c3cnc(N)nc3)nc12 [GDC-0980] (max concentration tested 10000 nM) | – | – | 11.8 | 12.5 | 12.2 ± 0.97 | 10.5 ± 0.55 | 9.92 | 12.5 | – | – | 0 | 0 | 0.544 ± 0.76 | 1.59 | 0 | – | – | 82.8 | 80.9 | 79.39 ± 0.55 | 76.6 ± 3.3 | 90 | 83.4 | – |
